# Like-named read-outs stand apart in the source and are kept apart here.
# What was measured:
# IMP-1 = IMP-1 (Serratia marcescens, UniProt P52699); assay: biochemical; type: biochemical; conditions: fluorescence assay, CCF2-FA substrate, 2 pM enzyme, 2 hours at 25° C.; read-out: IMP-1 IC50
# In short: (§1)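 Class B activity is measured in the presence of compound by fluorescence with CCF2-FA after a 2-hour incubation at 25° C. IC50 is taken from a 4-parameter fit of semi-logarithmic dose-response data.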
# NDM-1 = NDM-1 (Klebsiella pneumoniae, UniProt C7C422); assay: biochemical; type: biochemical; conditions: fluorescence assay, CCF2-FA substrate, 1 pM enzyme, 2 hours at 25° C.; read-out: NDM-1 IC50
# In short: as §1
# VIM-1 = VIM-1 (Pseudomonas aeruginosa (strain ATCC 15692 / DSM 22644 / CIP 104116 / JCM 14847 / LMG 12228 / 1C / PRS 101 / PAO1), UniProt A0A0F7KYQ8); assay: biochemical; conditions: CCF2-FA substrate, 30 pM enzyme, 2 hours at 25° C.
# In short: as §1
# [1] = tested on: Escherichia coli expressing NDM-1 (CLB30005, CLB30016); type: cell-based; conditions: NDM-1 strain, with imipenem 1 μg/ml, 95% inhibition of growth
# In short: (§2)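 Clinical isolates (E. coli NDM-1, S. marcescens IMP-1, K. pneumoniae VIM-1) were diluted 1:100 from saline suspension into 1.1×CAMHB and exposed to test compound with imipenem at 1 μg/ml. Plates were incubated at 35° C for 22 hours to 24 hours, and growth was read by absorbance.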
# [2] = tested on: Klebsiella pneumoniae expressing VIM-1 (IHMA599644); type: cell-based; conditions: VIM-1 strain IHMA599644, with imipenem 1 μg/ml, 95% inhibition of growth
# In short: as §2
# [3] = tested on: Serratia marcescens expressing IMP-1 (CL5741); type: cell-based; conditions: IMP-1 strain CL5741, with imipenem 1 μg/ml, 95% inhibition of growth
# In short: as §2
# [4] = tested on: Pseudomonas aeruginosa efflux+ (MB9798), IMP-1; type: cell-based; conditions: concentration restoring susceptibility to imipenem at 2 μg/mL in the presence of a class A, C, D serine β-lactamase inhibitor closely related to relebactam
# In short: (§3)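 PAO1 pair, broth microdilution; fixed β-lactam (imipenem/ceftazidime) at ~CLSI breakpoint + fixed class A/C BLI for AmpC; serial MBLi titration; endpoint = MBLi conc. restoring susceptibility; MB9798:MB9799 ratio = efflux liability.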
# [5] = tested on: Pseudomonas aeruginosa efflux− (MB9799), IMP-1; type: cell-based; conditions: concentration restoring susceptibility to imipenem at 2 μg/mL in the presence of a class A, C, D serine β-lactamase inhibitor closely related to relebactam
# In short: as §3
# [6] = tested on: Pseudomonas aeruginosa MB9798 vs MB9799; conditions: ratio MITC95 PA_9798/MITC95 PA_9799
# In short: as §3
# [7] = fluorescence assay, read-out: VIM-1 IC50
# Sequence of IMP-1 (P52699 whole entry, looked up, species assumed): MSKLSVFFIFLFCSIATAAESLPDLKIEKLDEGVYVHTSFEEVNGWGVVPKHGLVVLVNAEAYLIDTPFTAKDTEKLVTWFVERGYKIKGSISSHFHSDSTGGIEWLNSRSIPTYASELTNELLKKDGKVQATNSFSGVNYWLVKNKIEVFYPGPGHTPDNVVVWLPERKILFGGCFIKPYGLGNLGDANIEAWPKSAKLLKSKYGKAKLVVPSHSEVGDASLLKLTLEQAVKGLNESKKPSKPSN
# Sequence of NDM-1 (C7C422 whole entry, looked up, species assumed): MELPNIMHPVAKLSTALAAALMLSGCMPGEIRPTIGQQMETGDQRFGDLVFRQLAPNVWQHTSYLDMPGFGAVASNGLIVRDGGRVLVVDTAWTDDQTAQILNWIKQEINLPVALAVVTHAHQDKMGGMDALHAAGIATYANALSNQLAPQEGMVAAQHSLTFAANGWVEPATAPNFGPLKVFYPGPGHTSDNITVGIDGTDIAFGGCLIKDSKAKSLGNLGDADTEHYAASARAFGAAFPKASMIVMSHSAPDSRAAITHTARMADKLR
Structure (SMILES),IC50 (IMP-1) [nM],IC50 (NDM-1) [nM],IC50 (VIM-1; [7]) [nM],Escherichia coli MITC95 [1] [µM],Klebsiella pneumoniae MITC95 [2] [µM],Serratia marcescens MITC95 [3] [µM],"P. aeruginosa expressing IMP-1, efflux + (MB9798) MITC95 [4] [µM]","P. aeruginosa expressing IMP-1, efflux − (MB9799) MITC95 [5] [µM]",Efflux ratio [6],"IC50 (VIM-1; VIM-1 IC50, fluorescence assay) [nM]"
"C[C@H](N)c1nc2c(-c3ccc(S(=O)(=O)N[C@@H]4CCNC4)c(S(N)(=O)=O)c3-c3nn[nH]n3)cccc2[nH]1 [Example 272, 4-(2-((S)-1-aminoethyl)-1H-benzo[d]imidazol-4-yl)-N1-((R)-pyrrolidin-3-yl)-3-(2H-tetrazol-5-yl)benzene-1,2-disulfonamide]",1.36,0.0667,0.11,3.125,1.563,1.563,1.563,0.7813,2.00,–
"C[C@@H](N)c1nc2c(-c3ccc(S(=O)(=O)N[C@@H]4CCNC4)c(S(N)(=O)=O)c3-c3nn[nH]n3)cccc2[nH]1 [Example 273, 4-(2-((R)-1-aminoethyl)-1H-benzo[d]imidazol-4-yl)-N1-((R)-pyrrolidin-3-yl)-3-(2H-tetrazol-5-yl)benzene-1,2-disulfonamide]",1.41,0.0565,0.124,1.563,1.563,1.563,0.7813,0.7813,1.00,–
"NCc1nc2cc(-c3ccc(S(=O)(=O)N[C@@H]4CCNC4)c(S(N)(=O)=O)c3-c3nn[nH]n3)ccc2[nH]1 [Example 274, (R)-4-(2-(aminomethyl)-1H-benzo[d]imidazol-5-yl)-N1-(pyrrolidin-3-yl)-3-(2H -tetrazol-5-yl)benzene-1,2-disulfonamide]",0.486,0.0833,0.102,0.7813,1.563,1.563,0.7813,0.7813,1.00,–
"NCc1nc2cc(-c3ccc(S(=O)(=O)N[C@@H]4CCNC4)c(S(N)(=O)=O)c3-c3nn[nH]n3)ccc2s1 [Example 275, (R)-4-(2-(aminomethyl)benzo[d]thiazol-5-yl)-N^1-(pyrrolidin-3-yl)-3-(2H-tetrazol-5-yl)benzene-1,2-disulfonamide]",0.171,0.0633,–,0.7813,1.563,0.7813,0.7813,0.7813,1.00,0.0902
"NCc1nc2c(-c3ccc(S(=O)(=O)N[C@@H]4CCNC4)c(S(N)(=O)=O)c3-c3nn[nH]n3)cccc2s1 [Example 276, (R)-4-(2-(aminomethyl)benzo[d]thiazol-4-yl)-N1-(pyrrolidin-3-yl)-3-(2H-tetrazol-5-yl)benzene-1,2-disulfonamide]",0.542,0.0561,–,1.172,0.7813,0.7813,0.7813,0.7813,1.00,0.0881
"Nc1cccc(-c2ccc(S(=O)(=O)N[C@@H]3CCNC3)c(S(N)(=O)=O)c2-c2nn[nH]n2)n1 [Example 277, (R)-4-(6-aminopyridin-2-yl)-N1-(pyrrolidin-3-yl)-3-(2H-tetrazol-5-yl)benzene-1,2-disulfonamide]",1.27,0.148,0.129,0.7813,1.563,1.563,0.7813,0.7813,1.00,–
"NCc1ncc(-c2cccc(-c3ccc(S(=O)(=O)N[C@@H]4CCNC4)c(S(N)(=O)=O)c3-c3nn[nH]n3)c2)[nH]1 [Example 278, (R)-3′-(2-(aminomethyl)-1H-imidazol-5-yl)-N4-(pyrrolidin-3-yl)-2-(2H-tetrazol-5-yl)-[1,1′-biphenyl]-3,4-disulfonamide]",0.64,0.0566,–,0.7813,0.7813,0.7813,0.7813,0.7813,1.00,0.144
"NCCn1nc2cccc(-c3ccc(S(=O)(=O)N[C@@H]4CCNC4)c(S(N)(=O)=O)c3-c3nn[nH]n3)c2n1 [Example 279, (R)-4-(2-(2-aminoethyl)-2H-benzo[d][1,2,3]triazol-4-yl)-N1-(pyrrolidin-3-yl)-3-(2H-tetrazol-5-yl)benzene-1,2-disulfonamide]",3.03,0.232,–,0.7813,0.7813,0.7813,0.7813,0.7813,1.00,0.133
"CNc1nc2c(-c3ccc(S(=O)(=O)N[C@@H]4CCNC4)c(S(N)(=O)=O)c3-c3nn[nH]n3)cccc2[nH]1 [Example 280, (R)-4-(2-(methylamino)-1H-benzo[d]imidazol-4-yl)-N1-(pyrrolidin-3-yl)-3-(2H-tetrazol-5-yl)benzene-1,2-disulfonamide]",0.61,0.0408,0.158,0.7813,1.563,0.7813,0.3906,0.7813,0.50,–
"Cn1nc2cccc(-c3ccc(S(=O)(=O)N[C@@H]4CCNC4)c(S(N)(=O)=O)c3-c3nn[nH]n3)c2n1 [Example 281, (R)-4-(2-methyl-2H-benzo[d][1,2,3]triazol-4-yl)-N1-(pyrrolidin-3-yl)-3-(2H-tetrazol-5-yl)benzene-1,2-disulfonamide]",0.75,0.0166,0.0515,1.563,3.125,1.563,3.125,1.563,2.00,–
"NS(=O)(=O)c1c(S(=O)(=O)N[C@@H]2CCNC2)ccc(-c2cnc3cc[nH]c3c2)c1-c1nn[nH]n1 [Example 282, (R)-N1-(pyrrolidin-3-yl)-4-(1H-pyrrolo[3,2-b]pyridin-6-yl)-3-(2H-tetrazol-5-yl)benzene-1,2-disulfonamide]",1.13,0.0446,–,0.7813,1.563,0.7813,0.7813,0.7813,1.00,0.133
"NCc1nc2c(-c3ccc(S(=O)(=O)N[C@@H]4CCNC4)c(S(N)(=O)=O)c3-c3nn[nH]n3)cccc2[nH]1 [Example 283, (R)-4-(2-(aminomethyl)-1H-benzo[d]imidazol-4-yl)-N1-(pyrrolidin-3-yl)-3-(2H-tetrazol-5-yl)benzene-1,2-disulfonamide]",1.2,0.0721,0.124,0.7813,1.172,0.6836,0.7813,0.7813,1.00,–
